Source: publication PMC7689250, “Synthetic Peptide Libraries Designed From a Minimal Alpha-Helical Domain of AS-48-Bacteriocin Homologs Exhibit Potent Antibacterial Activity” (Frontiers in Microbiology, 2020)
Like-named read-outs stand apart in the source and are kept apart here. Residues, ends and D or L forms follow the SMILES beside them.

Tests used:
S. aureus (USA300) = type: cell-based, Staphylococcus aureus; details: for MBC: USA300; for MIC: USA300, 16 h
Protocol: (§1) Peptides were screened against Escherichia coli (BL21), Streptococcus pyogenes (M1T1 5448, hereby referred to as M1), Pseudomonas aeruginosa (PAO1), and Staphylococcus aureus (USA300). Overnight bacterial cultures were grown in optimal media for each species: Luria-Bertani (LB) broth for E. coli, P. aeruginosa, and S. aureus, and Todd-Hewitt (TH) broth for S. pyogenes. Cultures were pelleted and re-suspended in Mueller-Hinton (MH) broth for peptide screens or minimal inhibitory concentration (MIC) assays, with 1 × 10^6 CFU/mL bacteria added per well ([Wiegand et al., 2008]). MICs for each parent peptide were identified against each bacterial strain as previously described ([Fields et al., 2018]). Members of each peptide library were screened against each bacterial strain at half of the MIC of the corresponding parent peptide to identify library members with increased antimicrobial activity relative to the parent peptide. […] Minimal bactericidal concentrations (MBCs) were determined following the respective MIC assays by plating aliquots from wells corresponding to each peptide concentration from the 96-well plate used for the MIC on species-appropriate agar. Plates were incubated at 37°C overnight, and MBCs were identified as the lowest concentrations of peptide at which no colonies were obtained. A Synergy H1 Microplate Reader (BioTek, Winooski, VT, United States) was used to determine the MICs and identify peptides with greater antimicrobial activity than the corresponding parent peptide by measuring OD 600 of the bacterial cultures in 96-well microtiter plates.

sheep erythrocytes = type: cell-based; details: red cells of sheep, 1 h
Protocol: To determine if peptide variants were hemolytic, fresh defibrinated whole sheep blood (Hardy Diagnostics) was washed three times in cold PBS, and washed blood was diluted 1:25 in PBS. Treatments were applied at a 1:10 ratio of sample:blood, where the sample was either 10% Triton, PBS, or a specific peptide concentration corresponding to concentrations used in the MIC assays. Treatments were incubated with the blood for 1 h at 37°C. Following incubation, samples were centrifuged at […] for 10 min at 4°C, and the absorbance of the supernatants at 450 nm was measured on the Synergy H1 Microplate Reader to measure the release of hemoglobin. Percent hemolysis was quantified by normalizing to the negative and positive controls.

E. coli (BL21) = type: cell-based, Escherichia coli; details: for MBC: BL21; for MIC: BL21, 16 h
Protocol: as §1

S. pyogenes (M1) = type: cell-based, Streptococcus pyogenes; details: for MBC: M1
Protocol: as §1

P. aeruginosa (PAO1) = type: cell-based, Pseudomonas aeruginosa; details: for MBC: PAO1; for MIC: PAO1, 16 h
Protocol: as §1

SMILES | MIC (S. aureus (USA300)) | MIC (E. coli (BL21)) | MIC (S. pyogenes (M1); M1, 16 h) | MIC (P. aeruginosa (PAO1)) | MIC (S. pyogenes (M1); S. pyogenes M1) | MBC (S. aureus (USA300)) | Percent Hemolysis (sheep erythrocytes) | MBC (E. coli (BL21)) | MBC (S. pyogenes (M1)) | MBC (P. aeruginosa (PAO1))
CC[C@H](C)[C@H](NC(=O)[C@H](Cc1ccc(O)cc1)NC(=O)[C@H](CCCCN)NC(=O)[C@H](CCCCN)NC(=O)[C@H](CC(C)C)NC(=O)[C@H](CCC(=O)O)NC(=O)[C@H](CCCCN)NC(=O)[C@H](Cc1c[nH]c2ccccc12)NC(=O)[C@@H](NC(=O)[C@H](CCCNC(=N)N)NC(=O)[C@H](CCC(=O)O)NC(=O)[C@H](CO)NC(=O)CNC(=O)[C@H](C)N)[C@@H](C)CC)C(=O)N[C@@H](CCCCN)C(=O)N[C@@H](CCCCN)C(=O)NCC(=O)N[C@@H](CCCCN)C(=O)N[C@@H](CCCCN)C(=O)N[C@H](C(=O)N[C@H](C(=O)N[C@@H](CCCNC(=N)N)C(=O)N[C@@H](C)C(=O)N[C@@H](C)C(=O)N[C@@H](Cc1c[nH]c2ccccc12)C(=O)O)[C@@H](C)CC)C(C)C [Syn-enterocin-24] (H-AGSERIWKELKKYIKKGKKVIRAAW-OH; N-terminus and C-terminus assumed) | 64 µM | 2 µM | 16 µM | 8 µM |  | >128 µM | 10.5% | 2 µM | 16 µM | 16 µM
CC[C@H](C)[C@H](NC(=O)[C@H](CCCCN)NC(=O)[C@H](CCCCN)NC(=O)CNC(=O)[C@H](CCC(=O)O)NC(=O)[C@H](CC(N)=O)NC(=O)[C@@H](NC(=O)[C@@H](NC(=O)[C@H](CCCCN)NC(=O)[C@H](CCCCN)NC(=O)[C@H](CC(C)C)NC(=O)[C@H](CCCNC(=N)N)NC(=O)[C@H](CC(N)=O)NC(=O)[C@H](Cc1ccccc1)NC(=O)[C@@H](NC(=O)[C@H](CCCCN)NC(=O)[C@H](CCC(=O)O)NC(=O)[C@@H](NC(=O)[C@H](Cc1c[nH]c2ccccc12)NC(=O)[C@H](C)N)[C@@H](C)O)[C@@H](C)CC)[C@@H](C)O)[C@@H](C)CC)C(=O)N[C@@H](C)C(=O)N[C@@H](CCCCN)C(=O)N[C@@H](CCCNC(=N)N)C(=O)N[C@@H](C)C(=O)N[C@@H](Cc1c[nH]c2ccccc12)C(=O)O [Syn-larvacin-40] (H-AWTEKIFNRLKKTINEGKKIAKRAW-OH; N-terminus and C-terminus assumed) | 4 µM | 2 µM | 0.25 µM | 16 µM |  | 4 µM | 17.5% | 2 µM | 4 µM | 16 µM
CC[C@H](C)[C@H](NC(=O)[C@H](CCCCN)NC(=O)[C@H](CCCCN)NC(=O)[C@H](CCCCN)NC(=O)[C@H](CC(C)C)NC(=O)[C@H](Cc1ccccc1)NC(=O)[C@H](CCC(N)=O)NC(=O)[C@H](CCCNC(=N)N)NC(=O)[C@@H](NC(=O)[C@@H](NC(=O)[C@H](CCC(=O)O)NC(=O)[C@H](CCCCN)NC(=O)CNC(=O)[C@H](C)N)[C@@H](C)O)[C@@H](C)CC)C(=O)N[C@@H](CCC(N)=O)C(=O)N[C@@H](CCC(=O)O)C(=O)N[C@@H](Cc1c[nH]c2ccccc12)C(=O)N[C@@H](CCCCN)C(=O)N[C@@H](CCCCN)C(=O)N[C@@H](CCCNC(=N)N)C(=O)N[C@@H](C)C(=O)N[C@H](C(=O)N[C@H](C(=O)N[C@@H](C)C(=O)N[C@@H](Cc1c[nH]c2ccccc12)C(=O)O)[C@@H](C)CC)[C@@H](C)O [Syn-larvacin-44] (H-AGKETIRQFLKKKIQEWKKRATIAW-OH; N-terminus and C-terminus assumed) | 32 µM | 0.5 µM | 0.5 µM | 16 µM |  | 32 µM | 20.9% | 1 µM | 0.5 µM | 32 µM
CC[C@H](C)[C@H](NC(=O)[C@H](CCCCN)NC(=O)[C@H](CCCCN)NC(=O)[C@H](CCCCN)NC(=O)[C@H](CC(C)C)NC(=O)[C@H](CCCNC(=N)N)NC(=O)[C@H](CCC(N)=O)NC(=O)[C@H](Cc1ccccc1)NC(=O)[C@@H](NC(=O)[C@@H](NC(=O)[C@H](CCC(=O)O)NC(=O)[C@H](CCCCN)NC(=O)CNC(=O)[C@H](C)N)[C@@H](C)O)[C@@H](C)CC)C(=O)N[C@@H](CCC(N)=O)C(=O)N[C@@H](CCC(=O)O)C(=O)N[C@@H](CCCCN)C(=O)NCC(=O)N[C@@H](CCCCN)C(=O)N[C@@H](CCCNC(=N)N)C(=O)N[C@@H](C)C(=O)N[C@H](C(=O)N[C@H](C(=O)N[C@@H](Cc1c[nH]c2ccccc12)C(=O)N[C@@H](Cc1c[nH]c2ccccc12)C(=O)O)[C@@H](C)CC)[C@@H](C)O [Syn-larvacin-67] (H-AGKETIFQRLKKKIQEKGKRATIWW-OH; N-terminus and C-terminus assumed) | 64 µM | 4 µM | 0.25 µM | 16 µM |  | 64 µM | 16.3% | 4 µM | 0.25 µM | 32 µM

Second part, led by results:

MIC (S. aureus (USA300)) | MIC (E. coli (BL21)) | MIC (S. pyogenes (M1); M1, 16 h) | MIC (P. aeruginosa (PAO1)) | MIC (S. pyogenes (M1); S. pyogenes M1) | SMILES | MBC (S. aureus (USA300)) | Percent Hemolysis (sheep erythrocytes) | MBC (E. coli (BL21)) | MBC (S. pyogenes (M1)) | MBC (P. aeruginosa (PAO1))
>128 µM | 4 µM |  | 64 µM | 0.5 µM | CC[C@H](C)[C@H](NC(=O)[C@H](CCCCN)NC(=O)CNC(=O)[C@H](Cc1ccccc1)NC(=O)[C@H](CCCCN)NC(=O)[C@H](CCCNC(=N)N)NC(=O)[C@H](CC(C)C)NC(=O)[C@H](Cc1ccc(O)cc1)NC(=O)[C@H](CCC(=O)O)NC(=O)[C@H](CC(C)C)NC(=O)[C@H](CC(C)C)NC(=O)[C@H](CCC(=O)O)NC(=O)[C@H](CCCCN)NC(=O)[C@@H](NC(=O)[C@H](CC(C)C)NC(=O)[C@H](CCCNC(=N)N)NC(=O)[C@H](CCC(N)=O)NC(=O)[C@H](C)NC(=O)CNC(=O)[C@H](C)N)[C@@H](C)O)C(=O)N[C@@H](C)C(=O)N[C@@H](CCCNC(=N)N)C(=O)N[C@@H](CCCCN)C(=O)N[C@@H](C)C(=O)N[C@@H](Cc1c[nH]c2ccccc12)C(=O)O [Syn-xiamencin-7] (H-AGAQRLTKELLEYLRKFGKIARKAW-OH; N-terminus and C-terminus assumed) | >128 µM |  | 4 µM | 0.5 µM | 128 µM
>128 µM | 16 µM |  | >128 µM | 0.25 µM | CC[C@H](C)[C@H](NC(=O)[C@H](CCCNC(=N)N)NC(=O)[C@H](C)NC(=O)[C@H](CCCCN)NC(=O)[C@H](CCCCN)NC(=O)CNC(=O)[C@H](Cc1ccccc1)NC(=O)[C@H](CCCCN)NC(=O)[C@H](CCCNC(=N)N)NC(=O)[C@H](CC(C)C)NC(=O)[C@H](CCC(=O)O)NC(=O)[C@H](CCC(=O)O)NC(=O)[C@H](CCCCN)NC(=O)[C@H](CC(C)C)NC(=O)[C@H](Cc1ccc(O)cc1)NC(=O)[C@H](CC(C)C)NC(=O)[C@@H](NC(=O)[C@H](CC(C)C)NC(=O)[C@H](C)NC(=O)[C@H](CCC(N)=O)NC(=O)[C@H](CCCNC(=N)N)NC(=O)CNC(=O)[C@@H](N)Cc1c[nH]c2ccccc12)[C@@H](C)O)C(=O)N[C@@H](C)C(=O)N[C@@H](Cc1c[nH]c2ccccc12)C(=O)O [Syn-xiamencin-13] (H-WGRQALTLYLKEELRKFGKKARIAW-OH; N-terminus and C-terminus assumed) | >128 µM |  | 32 µM | 0.25 µM | >128 µM
64 µM | 2 µM | 1 µM | >128 µM |  | CC[C@H](C)[C@H](NC(=O)[C@H](CCCCN)NC(=O)CNC(=O)[C@H](Cc1ccccc1)NC(=O)[C@H](CCCCN)NC(=O)[C@H](CCCNC(=N)N)NC(=O)[C@H](CC(C)C)NC(=O)[C@H](Cc1ccc(O)cc1)NC(=O)[C@H](CCC(=O)O)NC(=O)[C@H](CC(C)C)NC(=O)[C@H](CC(C)C)NC(=O)[C@H](CCC(=O)O)NC(=O)[C@H](CCCCN)NC(=O)[C@@H](NC(=O)[C@H](CC(C)C)NC(=O)[C@H](CCCNC(=N)N)NC(=O)[C@H](CCC(N)=O)NC(=O)[C@H](C)NC(=O)CNC(=O)[C@@H](N)Cc1c[nH]c2ccccc12)[C@@H](C)O)C(=O)N[C@@H](C)C(=O)N[C@@H](CCCNC(=N)N)C(=O)N[C@@H](CCCCN)C(=O)N[C@@H](C)C(=O)N[C@@H](Cc1c[nH]c2ccccc12)C(=O)O [Syn-xiamencin-15] (H-WGAQRLTKELLEYLRKFGKIARKAW-OH; N-terminus and C-terminus assumed) | 128 µM |  | 2 µM | 1 µM | >128 µM
